From ChEMBL document CHEMBL1201862, “PubChem BioAssay data set” (2004)
The source made the active and inactive calls.

Experiments:
Streptokinase A = target: T1, Streptokinase A (Streptococcus pyogenes serotype M1, UniProt P10520); test: viability-normalized secreted streptokinase activity reduction – plasminogen activation absorbance, OD405, dose response (AID 1914); type: functional, Streptococcus pyogenes M1 GAS;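 also: secreted streptokinase activity via plasminogen activation per viability signal from cell pellet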
T1 sequence (P10520 whole entry): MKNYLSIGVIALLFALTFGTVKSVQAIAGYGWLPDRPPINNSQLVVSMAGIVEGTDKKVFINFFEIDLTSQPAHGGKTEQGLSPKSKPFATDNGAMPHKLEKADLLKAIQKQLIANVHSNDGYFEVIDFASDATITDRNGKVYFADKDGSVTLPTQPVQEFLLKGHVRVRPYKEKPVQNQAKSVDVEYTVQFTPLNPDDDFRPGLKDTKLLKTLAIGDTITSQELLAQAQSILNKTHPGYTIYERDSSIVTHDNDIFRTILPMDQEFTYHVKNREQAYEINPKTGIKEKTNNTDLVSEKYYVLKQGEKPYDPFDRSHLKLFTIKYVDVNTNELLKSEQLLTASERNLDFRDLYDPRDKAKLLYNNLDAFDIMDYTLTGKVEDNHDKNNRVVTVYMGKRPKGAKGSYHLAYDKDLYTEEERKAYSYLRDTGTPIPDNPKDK

[1] = target: T2, Sentrin-specific protease 7 (Homo sapiens, UniProt Q9BQF6); type: functional;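 also: Luminescence-based dose-response confirmation of ultra-high-throughput screening hits, measuring inhibition of SENP7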
T2 sequence (Q9BQF6 whole entry): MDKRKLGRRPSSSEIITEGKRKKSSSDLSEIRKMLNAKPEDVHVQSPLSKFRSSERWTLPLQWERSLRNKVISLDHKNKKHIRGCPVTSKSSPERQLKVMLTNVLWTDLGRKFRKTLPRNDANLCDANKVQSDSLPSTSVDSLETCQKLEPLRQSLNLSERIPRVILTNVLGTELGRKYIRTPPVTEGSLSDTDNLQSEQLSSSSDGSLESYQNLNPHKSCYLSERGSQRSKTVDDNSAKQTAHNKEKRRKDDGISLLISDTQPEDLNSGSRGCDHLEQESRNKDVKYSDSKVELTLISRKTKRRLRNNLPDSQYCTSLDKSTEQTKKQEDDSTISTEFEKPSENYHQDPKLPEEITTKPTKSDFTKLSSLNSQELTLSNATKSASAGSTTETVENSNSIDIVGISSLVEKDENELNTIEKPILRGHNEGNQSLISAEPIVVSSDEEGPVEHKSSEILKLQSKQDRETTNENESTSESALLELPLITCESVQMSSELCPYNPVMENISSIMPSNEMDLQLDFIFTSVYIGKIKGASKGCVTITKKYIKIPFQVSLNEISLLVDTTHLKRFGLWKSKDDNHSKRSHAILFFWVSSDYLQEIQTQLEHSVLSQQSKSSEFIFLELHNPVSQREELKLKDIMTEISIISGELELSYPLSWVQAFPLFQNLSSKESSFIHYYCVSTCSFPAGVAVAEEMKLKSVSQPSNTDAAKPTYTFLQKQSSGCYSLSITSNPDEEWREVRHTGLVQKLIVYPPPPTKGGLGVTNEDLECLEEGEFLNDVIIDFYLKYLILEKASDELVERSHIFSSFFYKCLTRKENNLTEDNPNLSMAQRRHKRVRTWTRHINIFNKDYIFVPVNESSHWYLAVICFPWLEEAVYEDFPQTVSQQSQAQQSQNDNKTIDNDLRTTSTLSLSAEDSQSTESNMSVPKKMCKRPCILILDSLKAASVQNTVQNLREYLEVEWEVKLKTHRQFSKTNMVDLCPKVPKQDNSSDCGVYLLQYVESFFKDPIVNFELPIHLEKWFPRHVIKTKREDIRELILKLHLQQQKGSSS

Estrogen receptor = target: T3, Estrogen receptor (Homo sapiens, UniProt P03372);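 also: potency for inhibiting coactivator peptide recruitment to the receptor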
T3 sequence (P03372 whole entry): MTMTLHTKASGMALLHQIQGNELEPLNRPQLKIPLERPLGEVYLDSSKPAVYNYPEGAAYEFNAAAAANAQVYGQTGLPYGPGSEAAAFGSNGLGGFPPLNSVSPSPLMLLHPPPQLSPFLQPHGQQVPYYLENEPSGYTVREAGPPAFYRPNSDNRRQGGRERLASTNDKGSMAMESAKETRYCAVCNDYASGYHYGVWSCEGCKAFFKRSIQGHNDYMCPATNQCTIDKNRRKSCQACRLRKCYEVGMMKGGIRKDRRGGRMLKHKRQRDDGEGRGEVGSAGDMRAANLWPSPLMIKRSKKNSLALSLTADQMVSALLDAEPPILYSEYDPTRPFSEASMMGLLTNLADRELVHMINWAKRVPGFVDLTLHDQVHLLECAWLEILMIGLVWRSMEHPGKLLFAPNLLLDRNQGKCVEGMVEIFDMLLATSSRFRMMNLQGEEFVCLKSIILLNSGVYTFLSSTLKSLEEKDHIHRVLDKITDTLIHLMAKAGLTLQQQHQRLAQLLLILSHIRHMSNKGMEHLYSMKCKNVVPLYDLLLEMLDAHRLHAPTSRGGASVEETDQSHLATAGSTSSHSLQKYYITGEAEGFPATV

[2] = target: Serine/threonine-protein kinase D3 (Homo sapiens, UniProt O94806); type: functional;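 also: determined within a kinase panel screen, with PRKCN as the panel member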
[3] = target: Mitogen-activated protein kinase 9 (Homo sapiens, UniProt P45984); type: functional;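 also: value from a kinome panel profiling assay, MAPK9 panel entry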
[4] = target: Calcium/calmodulin-dependent protein kinase type II subunit alpha (Homo sapiens, UniProt Q9UQM7); test: Navigating the Kinome. Panel member name: CAMK2A; type: functional
Aurora kinase A = Aurora kinase A (Homo sapiens, UniProt O14965); type: functional;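 also: value from the Navigating the Kinome kinase panel profiling, panel entry STK6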
[5] = target: Receptor-type tyrosine-protein kinase FLT3 (Homo sapiens, UniProt P36888); type: functional;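 also: FLT3 was tested as one member of a kinome-wide kinase panel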
[6] = target: Serine/threonine-protein kinase pim-1 (Homo sapiens, UniProt P11309); type: functional
[7] = target: Serine/threonine-protein kinase PAK 4 (Homo sapiens, UniProt O96013); type: functional;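 also: value obtained within a kinome profiling panel in which PAK4 was one of the panel members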
[8] = target: Mitogen-activated protein kinase 8 (Homo sapiens, UniProt P45983); type: functional;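 also: value comes from one member of a kinome-wide kinase profiling panel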
[9] = target: BDNF/NT-3 growth factors receptor (Homo sapiens, UniProt Q16620); type: functional;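 also: NTRK2 measured as one member of a broad kinome-wide kinase profiling panel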
[10] = target: Rho-associated protein kinase 1 (Homo sapiens, UniProt Q13464); type: functional;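 also: measured within a broad kinome-wide panel profiling many kinases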
[11] = target: Mitogen-activated protein kinase kinase kinase kinase 4 (Homo sapiens, UniProt O95819); type: functional
Chain of Mitogen-activated protein kinase kinase kinase kinase 4 (O95819 whole entry): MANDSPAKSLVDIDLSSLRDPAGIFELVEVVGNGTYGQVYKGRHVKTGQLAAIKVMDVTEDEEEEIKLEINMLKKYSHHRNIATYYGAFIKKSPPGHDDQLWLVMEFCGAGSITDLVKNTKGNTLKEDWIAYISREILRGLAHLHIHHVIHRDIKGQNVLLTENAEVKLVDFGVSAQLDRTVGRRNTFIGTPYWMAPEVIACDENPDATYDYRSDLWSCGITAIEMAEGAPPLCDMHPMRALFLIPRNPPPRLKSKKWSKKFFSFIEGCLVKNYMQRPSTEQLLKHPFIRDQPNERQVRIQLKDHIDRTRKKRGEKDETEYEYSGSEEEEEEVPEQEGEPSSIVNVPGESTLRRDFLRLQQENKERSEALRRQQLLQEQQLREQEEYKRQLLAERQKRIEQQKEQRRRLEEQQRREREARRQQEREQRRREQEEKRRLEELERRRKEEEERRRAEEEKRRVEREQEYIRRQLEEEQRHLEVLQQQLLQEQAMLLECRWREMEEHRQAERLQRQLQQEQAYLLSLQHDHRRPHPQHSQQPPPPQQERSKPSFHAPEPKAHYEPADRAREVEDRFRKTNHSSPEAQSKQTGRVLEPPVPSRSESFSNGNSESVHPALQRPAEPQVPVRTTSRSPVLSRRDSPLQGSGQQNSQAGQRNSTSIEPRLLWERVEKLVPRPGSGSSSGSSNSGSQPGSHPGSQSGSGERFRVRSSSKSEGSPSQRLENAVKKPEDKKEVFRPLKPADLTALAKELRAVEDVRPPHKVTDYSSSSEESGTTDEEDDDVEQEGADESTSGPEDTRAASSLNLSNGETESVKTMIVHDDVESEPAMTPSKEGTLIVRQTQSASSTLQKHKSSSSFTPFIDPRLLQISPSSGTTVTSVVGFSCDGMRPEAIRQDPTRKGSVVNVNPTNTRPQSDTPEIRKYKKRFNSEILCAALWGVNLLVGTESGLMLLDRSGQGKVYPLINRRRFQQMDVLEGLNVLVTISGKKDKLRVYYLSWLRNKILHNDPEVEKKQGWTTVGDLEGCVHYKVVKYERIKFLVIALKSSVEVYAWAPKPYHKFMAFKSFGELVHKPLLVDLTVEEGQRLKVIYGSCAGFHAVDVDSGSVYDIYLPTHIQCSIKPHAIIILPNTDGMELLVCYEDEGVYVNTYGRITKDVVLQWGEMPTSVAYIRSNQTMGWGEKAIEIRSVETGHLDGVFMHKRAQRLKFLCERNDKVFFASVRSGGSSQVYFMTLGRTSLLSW

Chain of Receptor-type tyrosine-protein kinase FLT3 (P36888 whole entry): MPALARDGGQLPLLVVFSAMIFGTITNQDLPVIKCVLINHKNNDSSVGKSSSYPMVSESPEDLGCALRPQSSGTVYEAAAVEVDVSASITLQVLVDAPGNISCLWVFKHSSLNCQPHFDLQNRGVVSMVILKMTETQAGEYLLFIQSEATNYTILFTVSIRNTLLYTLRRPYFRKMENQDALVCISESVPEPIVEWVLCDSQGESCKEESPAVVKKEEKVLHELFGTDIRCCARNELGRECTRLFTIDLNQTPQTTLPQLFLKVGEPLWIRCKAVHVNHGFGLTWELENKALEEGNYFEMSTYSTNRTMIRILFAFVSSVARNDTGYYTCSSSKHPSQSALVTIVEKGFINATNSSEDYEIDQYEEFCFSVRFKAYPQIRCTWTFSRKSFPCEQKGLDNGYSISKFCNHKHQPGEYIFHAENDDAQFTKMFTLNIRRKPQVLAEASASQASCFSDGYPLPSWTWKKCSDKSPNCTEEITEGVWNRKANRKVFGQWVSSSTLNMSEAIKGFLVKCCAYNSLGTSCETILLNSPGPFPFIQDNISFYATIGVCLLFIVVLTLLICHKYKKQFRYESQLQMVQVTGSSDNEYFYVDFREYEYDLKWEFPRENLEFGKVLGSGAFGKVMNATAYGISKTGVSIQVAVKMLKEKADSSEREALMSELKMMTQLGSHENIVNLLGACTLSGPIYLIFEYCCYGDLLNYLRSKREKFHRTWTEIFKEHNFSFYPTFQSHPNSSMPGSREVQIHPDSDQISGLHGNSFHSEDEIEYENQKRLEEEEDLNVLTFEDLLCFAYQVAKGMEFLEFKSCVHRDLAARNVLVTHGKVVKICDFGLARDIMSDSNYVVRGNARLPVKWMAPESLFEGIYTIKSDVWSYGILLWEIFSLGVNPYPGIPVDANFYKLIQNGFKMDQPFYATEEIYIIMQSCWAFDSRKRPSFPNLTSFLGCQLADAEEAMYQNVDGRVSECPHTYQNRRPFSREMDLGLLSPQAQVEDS
Chain of BDNF/NT-3 growth factors receptor (Q16620 whole entry): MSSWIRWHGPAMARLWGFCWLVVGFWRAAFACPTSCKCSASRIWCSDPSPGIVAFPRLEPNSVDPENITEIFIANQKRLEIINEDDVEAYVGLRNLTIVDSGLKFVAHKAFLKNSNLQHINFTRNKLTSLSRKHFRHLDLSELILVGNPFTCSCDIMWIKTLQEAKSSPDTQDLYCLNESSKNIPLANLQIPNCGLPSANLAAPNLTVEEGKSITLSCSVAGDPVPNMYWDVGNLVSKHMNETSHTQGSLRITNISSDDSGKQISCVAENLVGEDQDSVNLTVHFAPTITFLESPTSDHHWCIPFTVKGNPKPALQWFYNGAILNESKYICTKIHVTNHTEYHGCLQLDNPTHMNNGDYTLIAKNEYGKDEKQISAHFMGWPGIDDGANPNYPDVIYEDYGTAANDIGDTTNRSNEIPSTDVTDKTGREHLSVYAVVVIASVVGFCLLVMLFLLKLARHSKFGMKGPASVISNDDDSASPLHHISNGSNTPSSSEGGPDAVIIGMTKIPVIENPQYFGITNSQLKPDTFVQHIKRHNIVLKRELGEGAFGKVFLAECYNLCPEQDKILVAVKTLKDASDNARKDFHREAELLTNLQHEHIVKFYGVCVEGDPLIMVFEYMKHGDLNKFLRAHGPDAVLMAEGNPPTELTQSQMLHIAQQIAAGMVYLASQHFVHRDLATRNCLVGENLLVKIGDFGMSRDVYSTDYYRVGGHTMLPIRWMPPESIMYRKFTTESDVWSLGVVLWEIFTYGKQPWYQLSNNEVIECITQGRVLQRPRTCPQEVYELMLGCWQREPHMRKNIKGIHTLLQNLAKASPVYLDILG
Chain of Mitogen-activated protein kinase 9 (P45984 whole entry): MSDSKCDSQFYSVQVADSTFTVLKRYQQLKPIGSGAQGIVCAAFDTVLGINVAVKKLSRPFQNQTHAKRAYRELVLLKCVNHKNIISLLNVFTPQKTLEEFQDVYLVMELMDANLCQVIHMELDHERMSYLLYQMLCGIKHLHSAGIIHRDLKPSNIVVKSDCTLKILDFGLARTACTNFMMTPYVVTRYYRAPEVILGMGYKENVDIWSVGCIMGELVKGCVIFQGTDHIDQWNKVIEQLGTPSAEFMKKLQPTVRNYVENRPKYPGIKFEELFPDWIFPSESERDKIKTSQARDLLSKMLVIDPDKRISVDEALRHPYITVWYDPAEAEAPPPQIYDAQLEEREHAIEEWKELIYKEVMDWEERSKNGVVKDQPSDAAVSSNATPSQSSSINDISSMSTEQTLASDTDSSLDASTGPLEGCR
Chain of Serine/threonine-protein kinase D3 (O94806 whole entry): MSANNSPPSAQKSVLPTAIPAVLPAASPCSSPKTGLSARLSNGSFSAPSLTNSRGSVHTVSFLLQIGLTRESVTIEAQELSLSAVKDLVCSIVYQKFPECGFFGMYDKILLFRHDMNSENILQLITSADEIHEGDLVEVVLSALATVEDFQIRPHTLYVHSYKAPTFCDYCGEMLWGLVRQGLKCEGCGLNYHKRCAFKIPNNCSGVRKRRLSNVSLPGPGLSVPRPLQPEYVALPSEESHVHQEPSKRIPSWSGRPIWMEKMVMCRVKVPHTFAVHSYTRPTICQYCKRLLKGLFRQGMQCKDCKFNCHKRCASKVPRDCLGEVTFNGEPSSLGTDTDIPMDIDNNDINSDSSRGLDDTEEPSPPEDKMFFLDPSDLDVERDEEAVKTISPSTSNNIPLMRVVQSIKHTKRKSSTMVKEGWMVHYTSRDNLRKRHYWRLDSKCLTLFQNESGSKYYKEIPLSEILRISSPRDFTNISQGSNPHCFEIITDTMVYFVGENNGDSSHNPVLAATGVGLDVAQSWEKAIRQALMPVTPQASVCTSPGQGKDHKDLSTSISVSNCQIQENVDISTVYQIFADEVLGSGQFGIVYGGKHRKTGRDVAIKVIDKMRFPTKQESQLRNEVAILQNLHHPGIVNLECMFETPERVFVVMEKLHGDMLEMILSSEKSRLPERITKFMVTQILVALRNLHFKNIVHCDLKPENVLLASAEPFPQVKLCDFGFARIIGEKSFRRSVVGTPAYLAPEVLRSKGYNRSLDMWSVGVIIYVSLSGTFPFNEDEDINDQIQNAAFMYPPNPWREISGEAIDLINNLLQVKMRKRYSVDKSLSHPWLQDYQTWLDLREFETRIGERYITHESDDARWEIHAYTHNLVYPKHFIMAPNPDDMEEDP
Chain of Aurora kinase A (O14965 whole entry): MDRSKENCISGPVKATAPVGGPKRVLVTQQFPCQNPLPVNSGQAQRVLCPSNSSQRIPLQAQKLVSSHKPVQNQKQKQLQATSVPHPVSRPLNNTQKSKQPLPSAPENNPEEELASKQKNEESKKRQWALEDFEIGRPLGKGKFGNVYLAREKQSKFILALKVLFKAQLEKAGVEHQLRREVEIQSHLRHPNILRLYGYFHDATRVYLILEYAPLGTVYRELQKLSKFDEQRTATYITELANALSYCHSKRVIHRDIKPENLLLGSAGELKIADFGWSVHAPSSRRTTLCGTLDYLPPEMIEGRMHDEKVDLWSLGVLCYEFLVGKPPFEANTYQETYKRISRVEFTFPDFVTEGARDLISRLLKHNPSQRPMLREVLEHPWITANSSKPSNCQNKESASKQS

With `CN1CCN(C(c2ccc(C(F)(F)F)cc2)c2cc(Cl)c3cccnc3c2O)CC1` (centres undefined) the EC50 (Streptokinase A) was > 150 µM (not active).
`NC(=O)c1c(NC(=O)c2cc3ccccc3o2)sc2c1CCC2` was tested, and the IC50 [1] was 3.74 µM (active) and the IC50 (Estrogen receptor) was 23.5 µM (active).
In the case of `O=C(NC(CCO)c1ccccc1)c1ccc(-c2ccncc2)cc1` (centres undefined), the Ki [2] is reported as > 3.98 µM (inactive), the Ki [3] is reported as > 3.98 µM (inactive) and the Ki [4] is reported as > 7.94 µM (inactive). The Ki (Aurora kinase A) was > 1.58 µM (inactive), the Ki [5] was > 3.16 µM (inactive) and the Ki [6] was > 6.31 µM (inactive). The Ki [7] was > 5.01 µM (inactive), the Ki [8] was > 5.01 µM (inactive) and the Ki [9] was > 3.98 µM (inactive). The Ki [10] was 0.00631 µM (active) and the Ki [11] was > 5.01 µM (inactive).
